Data taken from patent US12697340B2, “Compositions and methods for cellular ageing, stress resilience, autophagy, inflammation and longevity” (JUVN3 Holdings, LLC, priority 2018, dated 2026).

Key:
Type in all cases: cell-based
4HNE in C2C12 cells = assay: Oxidative stress (4HNE assay), C2C12 cells; details: C2C12 cells co-incubated with H2O2, FIG. 6C
Description: (§1) Treatments and cells. 6-hour and 24-hour cell culture treatments were with one of the following compounds: 1. Control or “vehicle” (DMSO+phosphate-buffered saline only); 2. Niagen (5 μg/mL); 3. BHB (beta hydroxybutyrate) (30 ug/mL); 4. CBD (cannabidiol) (5 ug/mL); 5. Olive leaf (5 ug/mL); 6. Dynamine (1 ug/mL); 7. Selenium (2 ug/mL); 8. Tributyrin (5 ug/mL)
(§2) Treatment materials and methods. C2C12 cells were treated with compounds 1-8 as listed above for 6 hours without hydrogen peroxide (H2O2) (termed “unperturbed cells” throughout); or cells were treated with compounds 1-8 above for 24 hours with a concomitant 400 uM hydrogen peroxide (H2O2).
Oxidative stress was assessed using the 4HNE assay which is a product of cellular lipid oxidation (see e.g., Am J Physiol Cell Physiol. 2016 Oct. 1; 311(4): C537-0543).
(§3) Western blot analysis was performed using antibodies that detected p-H2AX protein, LC3I, LC3II, 4HNE, and NLRP3 proteins in both the C2C12 and EOMA cells. Ponceau stain was used for protein staining.

[1] = system: LC3II/I ratio in C2C12 cells; assay: Autophagy flux (LC3II/I ratio), C2C12 cells; details: 24 hours with 400 uM H2O2, FIG. 6A
Description: as §1, §2
Autophagy flux (or activity) was assessed by assaying the LC3II/I ratio. This assay has been deemed the “gold standard” in autophagy monitoring (see e.g., Autophagy, 2007 Nov.-Dec.; 3(6):542-5).
as §3

C2C12 cells = assay: Total antioxidant capacity (TEAC assay), C2C12 cells with H2O2; details: C2C12 cells co-incubated with H2O2, FIG. 5B
Description: Treatments and cells. 6-hour and 24-hour cell culture treatments were with one of the following compounds: 1. Control or “vehicle” (DMSO+phosphate-buffered saline only); 2. […] (5 μg/mL); 3. BHB (beta hydroxybutyrate) (30 ug/mL); 4. […] Olive leaf (5 ug/mL); 6. Dynamine (1 ug/mL); 7. […] Tributyrin (5 ug/mL) Treatment materials and methods. […] Total antioxidant capacity was assessed using a Trolox equivalent antioxidant capacity (TEAC) assay.

| Compound | cellular oxidative stress (4HNE) (4HNE in C2C12 cells) | autophagy (LC3II/I ratio) [1] | total antioxidant capacity (Trolox) (C2C12 cells) | total antioxidant capacity (Trolox) (C2C12 cells; listed as Selenium) | total antioxidant capacity (Trolox) (C2C12 cells; listed as Tributyrin) |
| --- | --- | --- | --- | --- | --- |
| CC(O)CC(=O)O (stereo not drawn) [BHB, beta hydroxybutyrate] | decrease cellular oxidative stress | increased autophagy | – | – | – |
| C=C(C)[C@@H]1CCC(C)=C[C@H]1c1c(O)cc(CCCCC)cc1O [CBD, cannabidiol] | – | increased autophagy | – | – | – |
| [Se] [selenium] | – | increased autophagy | increase (e.g., restore) total antioxidant activity | increase or restore antioxidant capacity | – |
| CCCC(=O)OCC(COC(=O)CCC)OC(=O)CCC [tributyrin] | – | – | increase (e.g., restore) total antioxidant activity | – | increase or restore antioxidant capacity |
